Results: publication PMC9931709, “Uphill energy transfer mechanism for photosynthesis in an Antarctic alga” (Nature Communications, 2023)
Values belong to the compound of their own block, whether it stands above or below them.

Legend:
[1] = target: T1, Pc-frLHC (Prasiola crispa far-red light-harvesting Chl-binding protein complex) (Prasiola crispa, UniProt C0HLU5); experiment: cryo-EM structure, […] A; biochemical pigment analysis; settings: native pigment, pH 6.5
T1 construct: native complex purified from thylakoids of thalli harvested in Antarctica; beta-DDM; homo-undecamer, subunit about 29 kDa
T1 sequence (C0HLU5 45-307, one chain of several): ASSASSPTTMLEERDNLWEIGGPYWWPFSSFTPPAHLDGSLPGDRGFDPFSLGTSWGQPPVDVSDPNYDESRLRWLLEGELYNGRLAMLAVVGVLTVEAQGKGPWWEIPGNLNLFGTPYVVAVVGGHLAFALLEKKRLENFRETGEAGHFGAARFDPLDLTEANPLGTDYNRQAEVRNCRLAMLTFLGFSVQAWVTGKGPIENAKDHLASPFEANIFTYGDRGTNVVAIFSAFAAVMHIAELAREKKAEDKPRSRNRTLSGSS

[2] = target: Prasiola crispa far-red light-harvesting Chl-binding protein complex (Pc-frLHC) subunit (Prasiola crispa); experiment: cryo-EM structure; single-particle cryo-EM, C11 symmetry imposed; 6 mg protein/ml in 25 mM MES pH 6.5, 0.015% β-DDM, 0.5 M betaine; 3.13 Å

Compound: CC1=C[C@H](O)CC(C)(C)[C@H]1/C=C/C(C)=C/C=C/C(C)=C/C=C/C=C(C)/C=C/C=C(/C=C/C1=C(C)C[C@@H](O)CC1(C)C)CO [loroxanthin]
cryo-EM structure, 3.13 A; biochemical pigment analysis ([1]; L2 site): Pc-frLHC binds only two carotenoids: violaxanthin (vio) and loroxanthin (loro)

Compound: CC(/C=C/C=C(C)/C=C/[C@@]12O[C@]1(C)C[C@@H](O)CC2(C)C)=C\C=C\C=C(C)\C=C\C=C(C)\C=C\[C@@]12O[C@]1(C)C[C@@H](O)CC2(C)C [violaxanthin]
cryo-EM structure, 3.13 A; biochemical pigment analysis ([1]; L1 site): Pc-frLHC binds only two carotenoids: violaxanthin (vio) and loroxanthin (loro)

stoichiometry N [2]: 11
Compound: Prasiola crispa far-red light-harvesting Chl-binding protein complex (Pc-frLHC) subunit (natural protein)
